Assay results as given in patent publication US20230107216A1, “PANTETHEINE DERIVATIVES AND USES THEREOF” (Comet Therapeutics, Inc., priority 2018, published 2023).
Like-named read-outs stand apart in the source and are kept apart here.

How the values were obtained:
[1] = test system: Leigh Syndrome (LS) primary fibroblasts GM03672; assay: NADP+/NADPH (NADP/NADPH-Glo), Leigh fibroblasts GM03672; format: cell-based; conditions: Homo sapiens, Fibroblast, 24h, read-out: Increase in Total NADP+ + NADPH
Experimental: Primary adherent fibroblasts were cultured in minimum essential medium (MEM) (Gibco, 25030081) supplemented with 2 mM L-Glutamine (Gibco, 25030081), 15% fetal bovine serum (FBS) (Gibco, 26400044) and 1% penicillin/streptomycin (Gibco, 5140122) at 37° C. and 5% CO2. Cells were collected for either passaging or experiment at ˜70-80% confluence. Cells were obtained by trypsinization and seeded in cell culture microplates either white plate (Thermo Fisher Scientific, 152028) for luminescent measurement or black plate (Thermo Fisher Scientific, 165305) for fluorescent based read out for different assays listed below. Cells were obtained by trypsinization and […] were seeded and allowed to adhere for 16-18 hours to have confluency around 70-80% in the cell well with culture media. After 24 hours prior to measurements (37° C., 5% CO2) media was changed to Dulbecco's Modified Eagle Medium (DMEM, Agilent Seahorse cat #103575-100) with the appropriate supplements as stated below.
Primary fibroblasts assayed were Propionic Acidemia (PA) (GM03590 Coriell Institute for Medical Research, Tsi 6337 Trans-Hit Bio), Methylmalonic Acidemia (MMA) (Tsi 5224 Trans-Hit Bio), Subnormal activation of pyruvate dehydrogenase complex (PDH) (GM01503 Coriell Institute for Medical Research), Very long-chain acyl-CoA dehydrogenase (VLCAD) (GM17475), Leigh Syndrome (LS) (GM03672, GM13411 Coriell Institute for Medical Research), Pyruvate Carboxylase Deficiency (PC) (GM00444 Coriell Institute for Medical Research). 10 μM of Compounds were added for 2 hours in PA, MMA lines and for 24h for the other fibroblast lines.
Assay was performed according to manufacturer instructions (NADP+/NADPH-Glo Assay Promega, G9082). Assay required a plate for total measurement of NADP+/NADPH and a plate for individual measurement of NADP+ or NADPH. For every assay a 12-point standard curve is prepared ranging from 400 nM to 0.625 nM. Media is removed and replaced with 50 μl of PBS for both assays.
For individual NADP+/NADPH measurements, 50 μl of 1% DTAB (Sigma, D5047) (cell lysis reagent) in 0.2N NaOH was added to the plates and 100 μl of lysate was split into two plates with 50 μl each from which ratio of NADP/NADPH can be calculated. 25 μl of 0.4N HCl were added to the NADP+ plates and both NADP+ and NADPH plates were heated at 60° C. for 15 minutes. The acid and heat treatment destroyed NADPH allowing individual NADP+ measurements while heating in basic conditions destroys NADP+ allowing individual NADPH measurement. After 15 minutes plates were allowed to come to room temperature and Trizma base (Sigma, T1699) was added to the NADP+ plates to neutralize the acid and HCl Trizma hydrochloride (Sigma, T2694) was added to the NADPH plates. The NADNADPH glo reagent was prepared by adding 125 μl of NAD cycling substrate, 125 μl of reductase, 125 μl of reductase substrate, 125 μl NAD cycling enzyme to a total of the 25 ml of NAD GLO reagent. 1:1 ratio of total volume of reagent was added to the individual NADP+, NADPH measurements (total 100 μl) and 50 μl were added for the total NAD/NADPH measurements. Luminescence was measured for 30-60 minutes within the linear range.
A total dead cell count was performed as described in Example 817 and only alive cells were used for analysis.

[2] = test system: Pkd1−/− mouse inner medullary collecting duct cells (mIMRFNPKD 5E4); assay: mPKD 3D cyst swelling assay (forskolin-induced); format: cell-based; conditions: after 72 hours of forskolin exposure
Experimental: Cell model and control compounds. mIMCD3 WT cells were obtained via ATCC and modified to create the mIMRFNPKD 5E4 cell line, which has a CRISPR-Cas mediated knockout for Pkd1 as described SLAS Discov. 2017 September; 22(8):974-984. doi: 10.1177/2472555217716056. Cells were cultured in DMEM/F12 (Sigma)+10% FBS (Sigma)+0.5% Pen/Strep (Gibco)+1% GluMax (Gibco). Control compounds used were forskolin (Calbiochem, 344282), Rapamycin (Selleckchem, S1039) and Staurosporin (Selleckchem, S1421).
The 3D mouse cyst swelling assay was performed with Pkd1^−/− mouse inner medullary collecting duct cells (mIMRFNPKD 5E4). The cyst swelling protocol that was used was described previously (SLAS Discov. 2017 September; 22(8):974-984. doi: 10.1177/2472555217716056), with further optimization.
3D culture and compound exposure. mIMRFNPKD 5E4 cells were mixed with Cyst-Gel (OcellO BV). 15 μL of cell-gel mix was pipetted to 384-well plates (Greiner μClear, Greiner Bio-One B.V.) using a CyBio Felix 96/60 robotic liquid dispenser (Analyik Jena AG). Gel-cell mix was plated at a final cell density of 2250 cells per well. After gel polymerization at 37° C. for 30 minutes, 33 μL culture medium was added to each well. Cells were grown in the gel for 96 hours, after which the cells were co-exposed with forskolin (Calbiochem, 344282) and one the following molecules: reference compound Rapamycin (SelleckChem, S1039), toxic control compound Staurosporin (SelleckChem, S1421) or test compounds.
Sample processing. After 72 hours, cultures were fixed with 4% Formaldehyde (Sigma Aldrich) and simultaneously permeabilized with 0.2% Triton-X100 (Sigma Aldrich) and stained with 0.25 μM rhodamine-phalloidin (Sigma Aldrich) and 0.1% Hoechst 33258 (Sigma Aldrich) in 1×PBS (Sigma Aldrich) for 2 days at 4° C., protected from light. After fixation and staining, plates were washed with 1×PBS, sealed with a Greiner SilverSeal (Greiner Bio-One B.V.) and stored at 4° C. prior to imaging.
Imaging and image analysis. Imaging was done using Molecular Devices ImageXpress Micro XLS (Molecular Devices) with a 4× NIKON objective. For each well around 35 images in the Z-direction were made for both channels, capturing the whole z-plane in each image. Image analysis was performed using Ominer™ software (OcellO BV). Cysts were segmented using detection of Hoechst-stained nuclei and Rhodamine-phalloidin-stained cellular f-actin. Cyst area was determined by calculating for the area in px of each object in every in-focus plain. This was averaged per well. (N represented is number of wells) Fraction of apoptotic nuclei as an indicator of toxicity was calculated as the amount of nuclei without actin signal relative to the total amount of nuclei, both as count-measurements. Statistics was done using KNIME Analytics Platform (Konstanz, Germany, http://www.knime.org/), graphs were prepared in GraphPad Prism 6 (GraphPad Software, La Jolla, Calif.).

[3] = Leigh GM03672 P9, assay condition A (10 mM glucose, 2 mM L-glutamine, 1 mM pyruvate, 10% FBS)
[4] = Leigh GM03672 P8, assay condition B (1 mM glucose, 2 mM L-glutamine, 1 mM pyruvate, 10% FBS)

## COC(=O)CCC(=O)SCCNC(=O)CCNC(=O)[C@H](OC(=O)CNC(C)=O)C(C)(C)CO [Compound 1298, methyl 4-[(2-[3-[(2R)-2-[(2-acetamidoacetyl)oxy]-4-hydroxy-3,3-dimethylbutanamido]propanamido]ethyl)sulfanyl]-4-oxobutanoate]
[1]; [3]
  activation at 10 µM: ≥ 10%

## CC(C)(CO)[C@@H](O)C(=O)NCCC(=O)NCCSC(=O)CC(=O)CCC(=O)O [Compound 2, 6-[(2-[3-[(2R)-2,4-dihydroxy-3,3-dimethylbutanamido]propanamido]ethyl)sulfanyl]-4,6-dioxohexanoic acid]
[1]; [4]
  activation at 10 µM: ≥ 10%

## COC(=O)CCC(=O)SCCNC(=O)CCNC(=O)[C@H](OC(=O)CN)C(C)(C)CO [Compound 1294, methyl 4-[(2-[3-[(2R)-2-[(2-aminoacetyl)oxy]-4-hydroxy-3,3-dimethylbutanamido]propanamido]ethyl)sulfanyl]-4-oxobutanoate]
[1]; [3]
  activation at 10 µM: ≥ 10%

## C[C@H](O)CC(=O)CC(=O)SCCNC(=O)CCNC(=O)[C@H](O)C(C)(C)CO [Compound 1306, (2R)-2,4-dihydroxy-N-[2-[(2-[[(5S)-5-hydroxy-3-oxohexanoyl]sulfanyl]ethyl)carbamoyl]ethyl]-3,3-dimethylbutanamide]
[1]; [4]
  activation at 10 µM: ≥ 10%

## CC(C)(CO)[C@@H](O)C(=O)NCCC(=O)NCCSC(=O)C1CCC(=O)N1 (stereo partly drawn) [Compound 1227, S-2-{3-[(R)-2,4-dihydroxy-3,3-dimethylbutyrylamino]propionylamino}ethyl 5-oxo-2-pyrrolidinecarbothioate]
[2]; 10 uM
  % prevention of forskolin-induced cyst swelling: ≥10%

## COC(=O)CC(SCCNC(=O)CCNC(=O)[C@H](O)C(C)(C)COC(C)=O)C(=O)OC (stereo partly drawn) [Compound 149, 1,4-dimethyl 2-[(2-[3-[(2R)-4-(acetyloxy)-2-hydroxy-3,3-dimethylbutanamido]propanamido]ethyl)sulfanyl]butanedioate]
[2]; 50 uM
  % prevention of forskolin-induced cyst swelling: ≥10%

## COC(=O)CC(C(C)=O)C(=O)SCCNC(=O)CCNC(=O)[C@H](O)C(C)(C)CO (stereo partly shown) [Compound 410]
[1]; [4]
  activation at 10 µM: ≥ 10%

## CC(C)(CO)[C@@H](O)C(=O)NCCC(=O)NCCSC(=O)CCCO [Compound 1304, (2R)-2,4-dihydroxy-N-[2-([2-[(4-hydroxybutanoyl)sulfanyl]ethyl]carbamoyl)ethyl]-3,3-dimethylbutanamide]
[2]; 10 uM
  % prevention of forskolin-induced cyst swelling: ≥10%

## C[C@H](CC(=O)SCCNC(=O)CCNC(=O)[C@H](O)C(C)(C)CO)OC(=O)CCC(=O)O [Compound 1243, 4-{[(2R)-4-[(2-{3-[(2R)-2,4-dihydroxy-3,3-dimethylbutanamido]propanamido}ethyl)sulfanyl]-4-oxobutan-2-yl]oxy}-4-oxobutanoic acid]
[2]; 50 uM
  % prevention of forskolin-induced cyst swelling: ≥10%

## CC(=O)OCC(C)(C)[C@@H](O)C(=O)NCCC(=O)NCCSC(=O)CC(=O)CCC(=O)O [Compound 140, 6-[(2-[3-[(2R)-4-(acetyloxy)-2-hydroxy-3,3-dimethylbutanamido]propanamido]ethyl)sulfanyl]-4,6-dioxohexanoic acid]
[1]; [4]
  activation at 10 µM: ≥ 10%
